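Briefly, cells in 96-well plates were exposed to five compound concentrations for 48 h, and endpoints were estimated by linear interpolation. TGI: total growth inhibition.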

What all share (experiment): NCI anticancer screen, dose series, 48 h
The subject of assay [1] is PC-3 prostate.
Assay [2] concerns HCT-15 colon.
Assay [3] deals with OVCAR-3 ovarian.
Assay [4] relates to MCF7 breast.
For assay [5], the system named is UACC-62 melanoma.
Assay [6] has as its system RXF 393 renal.
The test system of assay [7] is OVCAR-5 ovarian.
In assay [8] the test system is SR leukemia.
For assay [9], the system named is COLO 205 colon.
Assay [10] concerns OVCAR-8 ovarian.
Assay [11] deals with MDA-MB-231 breast.
Assay [12] deals with HOP-62 NSCLC.
Assay [13] concerns HT29 colon.
Assay [14] deals with HCT-116 colon.
The subject of assay [15] is SK-MEL-28 melanoma.
The test system of assay [16] is SF-268 CNS.
Assay [17] has as its system UO-31 renal.
Assay [18] concerns CCRF-CEM leukemia.
For assay [19], the system named is 786-0 renal.
In assay [20] the test system is NCI-H522 lung.

Turning to `CCN1C[C@]2(C)CC[C@H](OC)C34C5C[C@@H]6[C@@H](OC)C[C@@](OC)(C5[C@H]6OCc5ccccc5)C(C13)[C@H](OC(C)=O)[C@@H]42` (stereo not given in full), the TGI in assay [1], in assay [2], in assay [3], in assay [4], in assay [5] and in [6] was above 100 µM throughout. Besides, the TGI in assay [7], in [8], in assay [9], in [10], in [11] and in [12] was above 100 µM each time. Besides, the TGI in assay [13], in assay [14], in assay [15], in [16], in [17] and in assay [18] was above 100 µM each time. Also, the TGI in assay [19] is above 100 µM.

As to `Nc1ccc(-c2nc3ccc(F)cc3s2)cc1I`, the TGI in assay [1] is above 100 µM; in assay [2], above 100 µM; in [4], above 100 µM; in assay [5], above 100 µM; in assay [6] it was above 67.9 µM; in [7] it was above 100 µM. Also, the TGI in [20], in assay [8], in assay [9], in [10], in [11] and in [12] was above 100 µM in each case. Further, the TGI in assay [13], in assay [14], in assay [15], in assay [16], in assay [17] and in [18] was above 100 µM throughout. The same molecule displayed a TGI in [19] above 100 µM.

With `CSc1c(C#N)c(S)n(-c2ccc(Cl)cc2)c(=O)c1C#N`, the TGI in [1], in [2], in assay [3], in assay [4], in [5] and in [6] was above 100 µM in each case. For the same molecule, the TGI in assay [7], in [20], in assay [8], in assay [9], in [10] and in [11] was above 100 µM throughout. For the same molecule, the TGI is above 100 µM in [13]; above 100 µM in assay [14]; above 100 µM in assay [15]; above 100 µM in assay [16]; 95.8 µM in assay [17]; above 100 µM in assay [18]. In addition, in assay [19], the TGI was above 100 µM.

In the case of `c1ccc2c(-c3csc(-c4c[nH]c5ccccc45)n3)c[nH]c2c1`, the TGI in [1], in [2], in assay [3], in assay [4], in [5] and in [6] was above 100 µM each time. Moreover, the TGI in [7] was above 100 µM; in [8], above 74.6 µM; in assay [10], above 100 µM; in [11], above 100 µM; in assay [12], above 100 µM; in [13] it was above 83.6 µM. The TGI in assay [14], in assay [15], in assay [16], in assay [17] and in [19] was above 100 µM each time.

As to `CN1CCC/C1=C1/C(=O)N(c2ccccc2)N=C1c1ccc[nH]1`, the TGI in [1], in assay [2], in assay [3], in assay [4], in assay [5] and in [6] was above 100 µM each time. Moreover, the TGI in assay [7], in assay [20], in assay [8], in assay [9], in assay [10] and in assay [11] was above 100 µM in each case. Also, the TGI in assay [12], in assay [14], in [15], in assay [16], in assay [17] and in assay [18] was above 100 µM in each case. This molecule showed a TGI in [19] above 100 µM.

In the case of `CC(=O)O[C@@H]1[C@H]2[C@@H](OC(=O)c3ccccc3)[C@@H](C)C[C@]2(O)[C@H](OC(C)=O)[C@@]2(C)[C@@H]3C[C@@](C)(OC(C)=O)C[C@@H](OC(C)=O)[C@@]3(OC(C)=O)C[C@@]12C`, the TGI in assay [1], in [2], in assay [3], in assay [4], in assay [5] and in assay [6] was above 10 µM in each case. Besides, the TGI in assay [7], in [20], in assay [8], in assay [9], in [10] and in [11] was above 10 µM each time. For the same molecule, the TGI in [12], in [14], in assay [16], in [17], in [18] and in assay [19] was above 10 µM throughout.

`CCC(=O)C(CCN1CCC(N2C(=O)C(CCC#N)c3ccccc32)CC1)(c1ccccc1)c1ccccc1` (stereo not given): the TGI in assay [1] was found to be 43.2 µM; in assay [2], 26 µM; in assay [3] it was 22.9 µM; in assay [4] it was 25.5 µM; in [5] it was 32.6 µM; in assay [6], 16.2 µM. Moreover, the TGI in assay [7] came out at 67.7 µM; in assay [20] it was 25.8 µM; in [8] it was 10.2 µM; in assay [9], 21.4 µM; in assay [10] it was 23.6 µM; in [11] it was 20.8 µM. Besides, the TGI in assay [12] is 32.2 µM; in assay [13], 12.9 µM; in assay [14], 17 µM; in assay [15], 34.9 µM; in assay [16] it was 34.5 µM; in [17] it was 21.4 µM. In addition, the TGI in assay [19] was 24.7 µM.

The values above are taken from PubChem BioAssay (NCI).
